Source: patent EP4467141A1, “PYRAZOLO-QUINOLINES AS SELECTIVE INHIBITORS OF GENOTOXIC STRESS-INDUCED IKK/NF- KB PATHWAYS FOR CANCER THERAPY” (Max-Delbrück-Centrum für Molekulare Medizin in der …, priority 2023, dated 2024)
Entries after “also recorded” stand apart in the source; their conditions may differ. Like-named read-outs stand apart in the source and are kept apart here.

Columns and labels:
CLK2 = target: T1, CLK2 (Homo sapiens, UniProt P49760); test: Kinase panel study; type: biochemical; details: for inhibition at 1 µM: 1000nM; for IC50: in vitro kinase panel
T1 construct: purchased Thermo Fisher Scientific
T1 sequence (P49760 whole entry): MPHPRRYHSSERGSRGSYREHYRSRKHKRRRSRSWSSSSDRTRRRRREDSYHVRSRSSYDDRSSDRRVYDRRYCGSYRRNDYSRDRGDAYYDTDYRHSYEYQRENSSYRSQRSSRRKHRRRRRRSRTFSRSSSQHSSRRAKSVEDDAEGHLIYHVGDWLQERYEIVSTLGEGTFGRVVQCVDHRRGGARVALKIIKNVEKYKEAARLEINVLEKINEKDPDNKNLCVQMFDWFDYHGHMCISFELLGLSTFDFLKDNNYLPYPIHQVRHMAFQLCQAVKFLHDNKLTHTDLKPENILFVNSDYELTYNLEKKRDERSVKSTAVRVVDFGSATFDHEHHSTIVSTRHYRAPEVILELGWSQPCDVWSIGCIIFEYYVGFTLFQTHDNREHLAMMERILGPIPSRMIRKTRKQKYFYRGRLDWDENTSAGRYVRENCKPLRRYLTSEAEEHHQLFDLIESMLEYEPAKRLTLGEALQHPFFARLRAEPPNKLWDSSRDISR
Method: The Kinase panel study was entirely provided by Thermo Fisher Scientific using the two lead compounds MW01 and MW05 as well as their derivatives (MW01-E06, MW01-E10, MW01-E14, MW01-E18, MW05-E2, MW05-E3, MW05-E9 and MW05-E10. The experiment was performed using the ZLyte or Adapta protocol according to manufacturer standard operating procedures.
Based on their similar effects in our screen and molecular analysis, MW01 and MW05 were used in comparative target deconvolution studies seeking common targets despite their distinct structures. To eliminate previously identified kinases regulating NF-κB activity, such as IKK, as possible targets of MW01 and MW05, an in vitro kinase inhibition assay was performed. […] We next investigated if any of the shared kinase targets of MW01 and MW05 play a role in genotoxic stress-induced NF-κB activity and established several criteria to narrow down pathway-relevant targets. Considering the similar NF-κB inhibition phenotypes of both compounds, we hypothesized first that the target should be shared by both lead compounds. Second, based on the CaCo2 recovery values and experimental treatment concentration of 10 µM), the putative target kinase should have a low IC50 of, at most, 2000 nM for both lead compounds in the in vitro kinase panel (Fig. 2A). Based on these criteria alone, we arrived at a relatively short list of potential targets for further analysis, leaving only PIK3CG, PIK3C2G, and CLK2 (Fig. 2B). IC50 values for PIK3C2G by both lead compounds agreed best with these criteria, but RNA expression analysis indicates high tissue specificity as well as lack of expression of this kinase in our U2-OS model cell line, which we then eliminated from further analysis (Uhlén et al., 2015). […] Table 6: Percentage of inhibition of the indicated kinases by MW01 or MW05 at either 10 µM or 1 µM. n.d. = not determined. […]
To validate the structural backbones of MW01 and MW05 and leverage additional structures in discerning on- and off-target activity, we screened more than 30 structural derivatives for similar NF-κB pathway inhibition compared to our lead compounds following irradiation or TNF stimulation (Table 1 and 2). Several structural derivatives of each lead compound were identified which reduced p-p65 and NFKBIA expression in an irradiation-specific manner. (Fig 3A, B, C, Fig. 8). […] As expected for structurally similar derivatives, kinase inhibition profiles of active derivatives were similar to the respective lead compounds, validating the common structural backbones of each as kinase inhibitors. However, inhibition of several kinases was lost some derivatives of MW01 and MW05, including PI3K isoforms, adding further evidence that the NF-κB inhibition by our compounds is not mediated by inhibition of these kinases. […] Considering the phenotypic similarity between two structurally distinct lead compounds, the agreement of the derivatives with our kinase IC50 criteria, and significant results following siRNA knockdown of CLK2 and CLK4, we proceeded to further characterize our lead compounds.

[1] = test system: NF-κB subunit p65 phosphorylation (S536); test: Western blot of p65 phosphorylation (S536) after DNA damage (irradiation or etoposide) in U2-OS cells; type: cell-based; details: for phosphorylation of p65 at serine 536 after DNA damage: 1-hour pre-treatment, irradiation (IR, 20 Gy), 90 min; for activity in cell-based NF-κB activation assays: 10 µM, p65 phosphorylation and NFKBIA expression after irradiation
Method: Fig.1: Identification of inhibitors specific for DNA damage-induced NF-κB activity. (A) Flowchart representing the high-throughput chemical library screening. A screen/counter-screen strategy was used by stimulating NF-κB in U2-OS cells with etoposide (50 µM for 90 min) and hits were counter-screened with TNFα (10 ng/ml for 20 min). Cells were pre-treated with compounds (10 µM) for 1 hour before stimulation, fixed, and percent p65 nuclear translocation measured by fluorescence microscopy. IC50 values were used for final selection. (B) Comparison of mean p65 nuclear translocation following either etoposide or TNFa stimulation after treatment with each counter-screened hit compound. Values were normalized to etoposide or TNFα positive controls. Specific inhibitors (red) of DNA damage-induced NF-κB signaling were defined by setting cut-off criteria (black line). […] (C) IC50 determination for MW01 (left) and MW05 (right) of p65 nuclear translocation, following either etoposide or TNFα treatment. […] IC50 noted with a dotted line. (D) Structures of compounds selected as leads for further analysis, MW01 (5-Hydroxy-10,11-dimethoxy-9H-benzo[c]indolo[3,2,1-ij][1,5]naphthyridin-9-one) and MW05 (3-Amino-7-methoxypyrazolo[3,4-b]quinolin-1-yl)-[3-(dimethylamino)phenyl]methanone). (E) Western blot analysis (top) and quantification (bottom) of NF-κB subunit p65 phosphorylation (S536) following 1-hour pre-treatment with DMSO, MW01 (10 µM), or MW05 (10 µM), in unstimulated, after 90 min irradiation (IR, 20 Gy), or after 20 min TNFα (10 ng/mL) conditions in U2- OS cells. B-actin was used as loading control after. The p-p65 signal was first normalized to β-actin loading control per sample, then each value to DMSO-treated unstimulated to evaluate relative activation of NF-κB. Ns: not significant; ***: p<0.001.
NF-κB was stimulated by DNA damage through either 20 Gy irradiation (IR) and analyzed after 90 minutes or by 10 ng/ml TNFα and analyzed after 20 minutes unless otherwise noted.
All compounds were pre-treated for 1-hour prior to NF-κB stimulation unless otherwise noted.
Cells were collected by scraping and lysed in Baeuerle lysis buffer supplemented with Protease (Thermo Fisher Scientific, 78429) and Phosphatase (Thermo Fisher Scientific, 78420) inhibitors after the appropriate treatment and time point. Proteins were quantified by Bradford assay (Bio-Rad, 5000006) and 20-50 µg of extracted proteins were loaded on 4-20% Protein Gel (Bio-Rad, 4568096) and then transferred onto a PVDF membrane (Bio-Rad, 1620177) using Tris-Glycine buffer with 20% of methanol. Blocking was performed for 1h with 5% not-fat dry milk in PBS 1X. Immunodetection was obtained using primary and secondary antibodies reported in Key Resources Table. The membranes were analyzed by ECL (Thermo Fisher Scientific, 34580) and detected by ChemiDoc XRS+ (Bio-Rad) using ImageLab software (Bio-Rad).

[2] = first CLK2 line of the table, read-out: Percentage of inhibition
[3] = second CLK2 line of the table, read-out: Percentage of inhibition
[4] = 10000nM, first CLK2 line of the table, read-out: Percentage of inhibition
[5] = 10000nM, second CLK2 line of the table, read-out: Percentage of inhibition
[6] = CLK2, compound at 10µM, read-out: % of Inhibition

Structure (SMILES): COc1ccc2c(c1OC)c(=O)n1c3ccc(O)cc3c3ccnc2c31 [MW01, 5-Hydroxy-10,11-dimethoxy-9H-benzo[c]indolo[3,2,1-ij][1,5]naphthyridin-9-one]
- inhibition at 1 µM (CLK2; [2]): 78%
- inhibition at 1 µM (CLK2; [3]): 78%
- inhibition at 10 µM (CLK2; [4]): 91%
- inhibition at 10 µM (CLK2; [5]): 91%
- IC50 (CLK2): 0.36 µM
- phosphorylation of p65 at serine 536 after DNA damage [1]: significantly reduced

Structure (SMILES): COc1ccc2c(c1)c1ccnc3c4nc(OC)ccc4c(=O)n2c13 [MW01-E6, 5,15-dimethoxy-1,11,14-triazapentacyclo[10.7.1,0^2,7.0^8,^20.0^13,^18]icosa-2(7),3,5,8(20),9,11,13(18),14,16-nonaen-19-one]
- inhibition at 10 µM (CLK2; [6]): 18%
- activity in cell-based NF-κB activation assays [1]: inactive

Structure (SMILES): O=c1c2cc(O)ccc2c2nccc3c4cc(O)ccc4n1c32 [MW01-E10, 5,16-dihydroxy-1,11-diazapentacyclo[10.7.1.0^2,^7.0^8,^20.0^13,^18]icosa-2(7),3,5,8(20),9,11,13(18),14,16-nonaen-19-one]
- inhibition at 10 µM (CLK2; [6]): 70%

Structure (SMILES): COc1ccc2c(c1)c1ccnc3c4ccnc(OC)c4c(=O)n2c13 [MW01-E14, 5,17-dimethoxy-1,11,16-triazapentacyclo[10.7.1.0^2,^7.0^8,^20.0^13,^18]icosa-2(7),3,5,8(20),9,11,13(18),14,16-nonaen-19-one]
- inhibition at 10 µM (CLK2; [6]): 20%
- activity in cell-based NF-κB activation assays [1]: inactive

Structure (SMILES): O=c1c2cnccc2c2nccc3c4cc(O)ccc4n1c32 [MW01-E18, 5-hydroxy-1,11,16-triazapentacyclo[10.7.1.0^2,^7.0^8,^20.0^13,^18]icosa-2(7),3,5,8(20),9,11,13(18),14,16-nonaen-19-one]
- inhibition at 10 µM (CLK2; [6]): 70%

Structure (SMILES): COc1ccc2cc3c(N)nn(C(=O)c4cccc(N(C)C)c4)c3nc2c1 [MW05, (3-Amino-7-methoxypyrazolo[3,4-b]quinolin-1-yl)-[3-(dimethylamino)phenyl]methanone]
- inhibition at 1 µM (CLK2; [2]): 40%
- inhibition at 1 µM (CLK2; [3]): 40%
- inhibition at 10 µM (CLK2; [4]): 86%
- inhibition at 10 µM (CLK2; [5]): 72%
- IC50 (CLK2): 1.44 µM
- phosphorylation of p65 at serine 536 after DNA damage [1]: significantly reduced

Structure (SMILES): COc1ccc2nc3c(cc2c1)c(N)nn3C(=O)c1cccc(N(C)C)c1 [MW05-E2, 1-[3-(dimethylamino)benzoyl]-6-methoxy-1H-pyrazolo[3,4-b]quinolin-3-amine]
- inhibition at 10 µM (CLK2; [6]): 74%
- CLK2 inhibition (CLK2; in vitro kinase assay): inhibited CLK2
- activity in cell-based NF-κB activation assays [1]: inactive; also recorded: lacking activity
